# Test results reported in publication PMC11539229 (Antimicrobial Agents and Chemotherapy, 2024).
# Where two headings read alike, the source gives them in different places.
# Assays:
# M. tuberculosis H37Rv = assay type: in vivo, BALB/c mice; settings: for additional reduction of lung CFU counts on addition to RZ: vs RZ; for reduction of lung CFU counts: monotherapy 300 mg/kg; for effect of addition to BPaL on bactericidal activity: experiment 5
# [1] = mouse, in vivo
# Text: (§1) The calculated exposures at EDmax for GSK138 and GSK693 were obtained using the intravenous mouse PK profiles fitting to a bicompartmental model to obtain those parameters to simulate the oral whole blood exposures at EDmax. Additionally, a monocompartmental model was used to fit the experimental oral pharmacokinetic studies in non-infected mouse together with measured plasma concentrations obtained from the sparse sampling in the experiment 2 in infected mice. Parameters obtained from this fitting were used to simulate the profile after GSK693 administration at 100, 200, and 300 mg/kg in the combination study and to calculate the associated exposures (see Table 2).
# [2] = Sparse plasma sampling in infected mice of the combination study (experiment 2); assay type: in vivo, mouse; settings: for Plasma AUC0–24 h: monocompartmental model, combination study; for Blood AUC0–24 h: plasma value transformed with blood/plasma ratio 1.79
# Text: as §1
# Tail vein blood was collected at the indicated time points. Briefly, an incision was made in the lateral tail vein. Blood (20–50 µL) was collected in BD Microtainer PST lithium heparin tubes from each mouse. The tubes were kept on ice before being centrifuged at 8,000 rpm for 5 min. The supernatant plasma (15–30 µL) was transferred to labeled microcentrifuge tubes, frozen, and stored at −80°C and then shipped on dry ice to GSK for further analysis.
# Ten microliters of plasma or blood samples thawed at ambient temperature was mixed with 200 µL of acetonitrile (ACN):MeOH (80:20). After this protein precipitation step, samples were filtered using a 0.45-µm filter plate [Multiscreen Solvinert 0.45-μm polytetrafluoroethylene (PTFE), Millipore] and then filtered using a 0.2-µm filter [AcroPrep Advance 96 Filter Plate 350 µL, 0.2-µm polytetrafluoroethylene (PTFE)] to ensure sterilization prior to LC-MS analysis.
# [3] = tested on: drug-susceptible, MDR and XDR M.tb clinical isolates; assay: microbe, parasite or virus in culture; assay type: cell-based, M. tuberculosis; settings: drug-susceptible, MDR and XDR clinical isolates
# [4] = mouse, in vivo, 10 mg/kg; cited from earlier work
smiles,measurement,setting,value
Cc1csc([C@](C)(O)c2nnc(Nc3ccn(Cc4csc(C)n4)n3)s2)n1 [GSK693],additional reduction of lung CFU counts on addition to RZ,"M. tuberculosis H37Rv; experiment 1, 300 mg/kg, week 8",1.44 log
same,"additive effect when combined with sutezolid, linezolid, or pretomanid (lung CFU)","M. tuberculosis H37Rv; experiment 1, GSK693 300 mg/kg",No additive effect
same,reduction of lung CFU counts,"M. tuberculosis H37Rv; experiment 1, 4 weeks of treatment",1.34 log10
same,reduction of lung CFU counts,"M. tuberculosis H37Rv; experiment 1, 8 weeks of treatment",2.33 log10
same,additional reduction of lung CFU counts on addition to RZ,"M. tuberculosis H37Rv; experiment 2, 100 mg/kg, 8 weeks",1.17 log
same,additional reduction of lung CFU counts on addition to RZ,"M. tuberculosis H37Rv; experiment 2, 200 mg/kg, 8 weeks",1.28 log
same,additional reduction of lung CFU counts on addition to RZ,"M. tuberculosis H37Rv; experiment 2, 300 mg/kg, 8 weeks",0.76 log
same,activity of the combination with RZ vs RZ alone or RZ with isoniazid,"M. tuberculosis H37Rv; mouse, in vivo",significantly more active
same,effect on the activity of the RZ combination,"M. tuberculosis H37Rv; mouse, in vivo",significantly enhanced
same,efficacy in combination with pretomanid and pyrazinamide compared with moxifloxacin,"M. tuberculosis H37Rv; mouse, in vivo, 300 mg/kg",nor was it as effective as moxifloxacin
same,exposure needed to achieve the maximum effect in monotherapy in the acute infection model,[1],"110,200 ng·h/mL"
same,Plasma AUC0–24 h,[2]; 100 mg/kg,"12,867 ng·h/mL"
same,Blood AUC0–24 h,[2]; 100 mg/kg,"23,032 ng·h/mL"
same,Plasma AUC0–24 h,[2]; 200 mg/kg,"27,337 ng·h/mL"
same,Blood AUC0–24 h,[2]; 200 mg/kg,"48,933 ng·h/mL"
same,Plasma AUC0–24 h,[2]; 300 mg/kg,"64,866 ng·h/mL"
same,Blood AUC0–24 h,[2]; 300 mg/kg,"116,110 ng·h/mL"
same,MIC90,[3],1.87 µM
"CO[C@H]1/C=C/O[C@@]2(C)Oc3c(C)c(O)c4c(O)c(c(/C=N/N5CCN(C)CC5)c(O)c4c3C2=O)NC(=O)/C(C)=C\C=C\[C@H](C)[C@H](O)[C@@H](C)[C@@H](O)[C@@H](C)[C@H](OC(C)=O)[C@@H]1C [rifampicin, reference compound]",AUC(0-t),"[2]; mouse, plasma, rifampicin co-administered with pyrazinamide, experiment 2, read-out: Plasma AUC0–24 h",68500 ng·h/mL
same,AUC0–24 h,[4],"87,200–142,100 ng·h/mL"
"NNC(=O)c1ccncc1 [isoniazid, reference compound]",effect of addition to BPaL on bactericidal activity,M. tuberculosis H37Rv; 4 weeks of treatment,significantly increased the bactericidal activity
same,effect on the activity of the RZ combination,"M. tuberculosis H37Rv; mouse, in vivo",did not enhance the activity
"COc1c(N2C[C@@H]3CCCN[C@@H]3C2)c(F)cc2c(=O)c(C(=O)O)cn(C3CC3)c12 [moxifloxacin, reference compound]",effect of addition to BPaL on bactericidal activity,M. tuberculosis H37Rv; 4 weeks of treatment,trend toward enhanced activity
